Assay results reported in PubChem BioAssay AID1963424 (Molecular Pharmacology Branch, DTP, NCI, 2024).

Tested on: 327498-153-R-J2-PDC complex spheroid growth, % test/control
Assay: Anticancer human tumor 327498-153-R-J2-PDC patient-derived uterine carcinosarcoma cell line growth inhibition [Asc]
Details: for IC50: curve of first compound; for viability, T/C: stronger effect = lower value
Method in brief: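 Concentration series start at each agent's clinical Cmax, or at 10 microM when none is established, and drop in half-log steps; agents are applied alone or together to complex spheroids built with HUVEC and hMSC.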

[1] = second compound 0.1 µM, first compound 0.00316 µM
[2] = second compound 0.1 µM, first compound 0.01 µM
[3] = second compound 0.1 µM, first compound 0.0316 µM
[4] = second compound 0.1 µM, first compound 0.1 µM
[5] = second compound 0.316 µM, first compound 0.00316 µM
[6] = second compound 0.316 µM, first compound 0.01 µM
[7] = second compound 0.316 µM, first compound 0.0316 µM
[8] = second compound 0.316 µM, first compound 0.1 µM
[9] = second compound 1 µM, first compound 0.00316 µM
[10] = second compound 1 µM, first compound 0.01 µM
[11] = second compound 1 µM, first compound 0.0316 µM
[12] = second compound 1 µM, first compound 0.1 µM
[13] = second compound 3.16 µM, first compound 0.00316 µM
[14] = second compound 3.16 µM, first compound 0.01 µM
[15] = second compound 3.16 µM, first compound 0.0316 µM
[16] = second compound 3.16 µM, first compound 0.1 µM
[17] = second compound 10 µM, first compound 0.00316 µM
[18] = second compound 10 µM, first compound 0.01 µM
[19] = second compound 10 µM, first compound 0.0316 µM
[20] = second compound 10 µM, first compound 0.1 µM
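Further: spheroids exposed to compound for 7 days after 3 days of growth.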
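Wherever viability, T/C is given: 100% = DMSO vehicle control wells.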

Compound: COc1c(OCCCN2CCOCC2)ccc2c3n(c(=NC(=O)c4cnc(N)nc4)nc12)CCN3 + Cc1c(S(C)(=O)=O)c(-c2cc(F)cc(N3CCN(c4ccc(NS(=O)(=O)c5ccc(NC(CCN6CCC(C(=O)OCCCP(=O)(O)O)CC6)CSc6ccccc6)c(S(=O)(=O)C(F)(F)F)c5)cc4)CC3)c2)c(-c2ccc(Cl)cc2)n1C(C)C
- IC50 (second compound 0.1 µM): 104 nM
- IC50 (second compound 0.316 µM): 96.5 nM
- IC50 (second compound 1 µM): 79.2 nM
- IC50 (second compound 3.16 µM): 86.4 nM
- IC50 (second compound 10 µM): 168 nM
- viability, T/C [1]: 81.3%
- viability, T/C [2]: 91.2%
- viability, T/C [3]: 80.3%
- viability, T/C [4]: 46.8%
- viability, T/C (second compound 0.1 µM, first compound 0.316 µM): 24.6%
- viability, T/C (second compound 0.1 µM, first compound 1 µM): 5.06%
- viability, T/C [5]: 91.3%
- viability, T/C [6]: 84.4%
- viability, T/C [7]: 77.2%
- viability, T/C [8]: 48.7%
- viability, T/C (second compound 0.316 µM, first compound 0.316 µM): 18.9%
- viability, T/C (second compound 0.316 µM, first compound 1 µM): 4.02%
- viability, T/C [9]: 91.1%
- viability, T/C [10]: 83.6%
- viability, T/C [11]: 63.9%
- viability, T/C [12]: 48.7%
- viability, T/C (second compound 1 µM, first compound 0.316 µM): 20.8%
- viability, T/C (second compound 1 µM, first compound 1 µM): 3.26%
- viability, T/C [13]: 91.5%
- viability, T/C [14]: 79.2%
- viability, T/C [15]: 72.2%
- viability, T/C [16]: 48.9%
- viability, T/C (second compound 3.16 µM, first compound 0.316 µM): 16.1%
- viability, T/C (second compound 3.16 µM, first compound 1 µM): 2.71%
- viability, T/C [17]: 166%
- viability, T/C [18]: 169%
- viability, T/C [19]: 151%
- viability, T/C [20]: 73%
- viability, T/C (second compound 10 µM, first compound 0.316 µM): 24%
- viability, T/C (second compound 10 µM, first compound 1 µM): 4.08%

Compound: NC(=O)C(=Cn1cnc(-c2cc(C(F)(F)F)cc(C(F)(F)F)c2)n1)c1cncnc1 + Cc1c(S(C)(=O)=O)c(-c2cc(F)cc(N3CCN(c4ccc(NS(=O)(=O)c5ccc(NC(CCN6CCC(C(=O)OCCCP(=O)(O)O)CC6)CSc6ccccc6)c(S(=O)(=O)C(F)(F)F)c5)cc4)CC3)c2)c(-c2ccc(Cl)cc2)n1C(C)C
- IC50 (second compound 0.1 µM): 36.4 nM
- IC50 (second compound 0.316 µM): 39.4 nM
- IC50 (second compound 1 µM): 31.2 nM
- IC50 (second compound 3.16 µM): 30.5 nM
- IC50 (second compound 10 µM): 46.6 nM
- viability, T/C (second compound 0.1 µM, first compound 0.000949 µM): 88.6%
- viability, T/C (second compound 0.1 µM, first compound 0.003 µM): 91.2%
- viability, T/C (second compound 0.1 µM, first compound 0.00949 µM): 84.6%
- viability, T/C (second compound 0.1 µM, first compound 0.03 µM): 58.4%
- viability, T/C (second compound 0.1 µM, first compound 0.0949 µM): 9.68%
- viability, T/C (second compound 0.1 µM, first compound 0.3 µM): 0.77%
- viability, T/C (second compound 0.316 µM, first compound 0.000949 µM): 98.2%
- viability, T/C (second compound 0.316 µM, first compound 0.003 µM): 93.3%
- viability, T/C (second compound 0.316 µM, first compound 0.00949 µM): 86.8%
- viability, T/C (second compound 0.316 µM, first compound 0.03 µM): 64.3%
- viability, T/C (second compound 0.316 µM, first compound 0.0949 µM): 4.86%
- viability, T/C (second compound 0.316 µM, first compound 0.3 µM): 0.51%
- viability, T/C (second compound 1 µM, first compound 0.000949 µM): 99.7%
- viability, T/C (second compound 1 µM, first compound 0.003 µM): 94.6%
- viability, T/C (second compound 1 µM, first compound 0.00949 µM): 87.1%
- viability, T/C (second compound 1 µM, first compound 0.03 µM): 53.1%
- viability, T/C (second compound 1 µM, first compound 0.0949 µM): 3.7%
- viability, T/C (second compound 1 µM, first compound 0.3 µM): 1.44%
- viability, T/C (second compound 3.16 µM, first compound 0.000949 µM): 95.8%
- viability, T/C (second compound 3.16 µM, first compound 0.003 µM): 90.7%
- viability, T/C (second compound 3.16 µM, first compound 0.00949 µM): 93.4%
- viability, T/C (second compound 3.16 µM, first compound 0.03 µM): 50.5%
- viability, T/C (second compound 3.16 µM, first compound 0.0949 µM): 4.58%
- viability, T/C (second compound 3.16 µM, first compound 0.3 µM): 0.43%
- viability, T/C (second compound 10 µM, first compound 0.000949 µM): 168%
- viability, T/C (second compound 10 µM, first compound 0.003 µM): 168%
- viability, T/C (second compound 10 µM, first compound 0.00949 µM): 168%
- viability, T/C (second compound 10 µM, first compound 0.03 µM): 78.8%
- viability, T/C (second compound 10 µM, first compound 0.0949 µM): 4.73%
- viability, T/C (second compound 10 µM, first compound 0.3 µM): 0.54%

Compound: NC1CCC(NC2CC2c2ccccc2)CC1 (stereo not given) + Cc1c(S(C)(=O)=O)c(-c2cc(F)cc(N3CCN(c4ccc(NS(=O)(=O)c5ccc(NC(CCN6CCC(C(=O)OCCCP(=O)(O)O)CC6)CSc6ccccc6)c(S(=O)(=O)C(F)(F)F)c5)cc4)CC3)c2)c(-c2ccc(Cl)cc2)n1C(C)C
- IC50 (second compound 0.1 µM): > 100 nM
- IC50 (second compound 0.316 µM): > 100 nM
- IC50 (second compound 1 µM): > 100 nM
- IC50 (second compound 3.16 µM): > 100 nM
- IC50 (second compound 10 µM): > 100 nM
- viability, T/C (second compound 0.1 µM, first compound 0.000316 µM): 98.9%
- viability, T/C (second compound 0.1 µM, first compound 0.001 µM): 109%
- viability, T/C [1]: 104%
- viability, T/C [2]: 95.6%
- viability, T/C [3]: 100%
- viability, T/C [4]: 98%
- viability, T/C (second compound 0.316 µM, first compound 0.000316 µM): 89.6%
- viability, T/C (second compound 0.316 µM, first compound 0.001 µM): 99.5%
- viability, T/C [5]: 95%
- viability, T/C [6]: 88.3%
- viability, T/C [7]: 93.8%
- viability, T/C [8]: 95.5%
- viability, T/C (second compound 1 µM, first compound 0.000316 µM): 94.2%
- viability, T/C (second compound 1 µM, first compound 0.001 µM): 96.6%
- viability, T/C [9]: 90.4%
- viability, T/C [10]: 91.5%
- viability, T/C [11]: 96.8%
- viability, T/C [12]: 90.6%
- viability, T/C (second compound 3.16 µM, first compound 0.000316 µM): 98.9%
- viability, T/C (second compound 3.16 µM, first compound 0.001 µM): 91.4%
- viability, T/C [13]: 92.6%
- viability, T/C [14]: 86.3%
- viability, T/C [15]: 96.8%
- viability, T/C [16]: 90.1%
- viability, T/C (second compound 10 µM, first compound 0.000316 µM): 177%
- viability, T/C (second compound 10 µM, first compound 0.001 µM): 173%
- viability, T/C [17]: 160%
- viability, T/C [18]: 158%
- viability, T/C [19]: 168%
- viability, T/C [20]: 181%
